Read-outs that look alike come from different tables or passages of the source.
How the values were obtained:
HAdV7a = test: plaque reduction assay in A549 cells, HAdV7a; assay type: cell-based, Human adenovirus
Experimental: (§1) The in vitro antiviral testing was done using a standard plaque reduction assay with A549 human lung carcinoma cells as previously described. The EC50s were determined using a Fitted Line Plot Regression analysis with Minitab Version 21 software. The EC50 is the effective concentration that inhibits plaque formation by 50%. The HAdV types tested represent the most common adenovirus serotypes that cause ocular infections (HAdV8, HAdV19/64, HAdV37 (EKC); HAdV3, HAdV4, HAdV7a (follicular conjunctivitis)) and serotypes that cause conjunctivitis and can replicate in the rabbit ocular model (HAdV1, HAdV2, HAdV5).
(§2) For the in vitro antiviral testing, clinical adenovirus isolates of types HAdV1, HAdV2, HAdV3, HAdV4, HAdV5, HAdV7a, HAdV8, and HAdV19/64 were anonymously collected from patients presenting with typical adenoviral conjunctivitis at the Charles T. Campbell Ophthalmic Microbiology Laboratory at the UPMC Eye Center, University of Pittsburgh, Pittsburgh, PA, USA. The isolates were retrieved from a frozen −80 °C retrospective clinical collection that was de-identified and stored for diagnostic test validations. The types of isolates were determined using serum neutralization. Recently, HAdV19 has been reclassified as HAdV64 [41]; however, for the purpose of this study, it was designated as HAdV19/64. No clinical isolates of HAdV37 were identified, therefore the ATCC (American Type Culture Collection, Manassas, VA, USA) reference strain of HAdV37 was used. The clinical isolates along with the ATCC HAdV37 reference strain were grown in A549 cell (CCL-185, ATCC) monolayers and stocks were prepared, aliquoted, and frozen at –80 °C. The titers of the stock viruses were determined as described in Section 4.7. The same clinical isolate of HAdV5 used for the in vitro antiviral testing was also used for the in vivo antiviral evaluation in the Ad5/NZW rabbit ocular replication model.
(§3) A549 human lung carcinoma cells were grown and maintained in Eagle’s MEM supplemented with 10% fetal bovine serum (Sigma Cell Culture Reagents, St. Louis, MO, USA). The A549 cell line was used to prepare the adenovirus stocks and for the determination of viral titers in the Ad5/NZW rabbit ocular replication model and in the in vitro plaque reduction assays.
Plaque reduction assays were performed 2–4 times using 24-well multiplates containing A549 monolayers. One plate per virus isolate per drug was used. The 24-well multiplates were inoculated with approximately 100 plaque-forming units (PFU) of HAdV per well. After a three-hour adsorption period, the inocula were removed from all wells. One ml of overlay media with 0.5% methylcellulose containing 100, 10, 1.0, 0.1, 0.01, or 0.001 μg/mL of CPE-C or cidofovir was added to 3 wells each. To the remaining 6 wells, 1 mL of overlay media with 0.5% methylcellulose and without CPE-C or cidofovir was added. The plates were incubated at 37 °C in 5% CO2 until plaque formation was visible. At that time, the cells were fixed and stained with 0.5% gentian violet containing formalin. The plates were dried, and the number of plaques per well was counted using a dissecting microscope. […] The mean and standard deviation EC50 concentrations of 2–4 trials were then determined for each HAdV isolate. […]

[1] = tested on: nine adenovirus types that commonly infect the eye; test: plaque reduction assay, whole panel of ocular HAdV types; assay type: cell-based, Human adenovirus; conditions: for range of mean EC50 concentrations across the HAdV serotypes tested: highest vs lowest mean EC50; for EC50: unidentified adenovirus
Experimental: as §1, §2, §3
Plaque reduction assays were performed 2–4 times using 24-well multiplates containing A549 monolayers. One plate per virus isolate per drug was used. The 24-well multiplates were inoculated with approximately 100 plaque-forming units (PFU) of HAdV per well. After a three-hour adsorption period, the inocula were removed from all wells. One ml of overlay media with 0.5% methylcellulose containing 100, 10, 1.0, 0.1, 0.01, or 0.001 μg/mL of CPE-C or cidofovir was added to 3 wells each. To the remaining 6 wells, 1 mL of overlay media with 0.5% methylcellulose and without CPE-C or cidofovir was added. The plates were incubated at 37 °C in 5% CO2 until plaque formation was visible. At that time, the cells were fixed and stained with 0.5% gentian violet containing formalin. The plates were dried, and the number of plaques per well was counted using a dissecting microscope. The CPE-C and cidofovir EC50 concentrations (concentrations that inhibits plaque formation by 50%) for each virus isolate were determined using a Fitted Line Plot Regression analysis (Minitab Version 21, State College, PA) of the average number of plaques versus drug concentration. The mean and standard deviation EC50 concentrations of 2–4 trials were then determined for each HAdV isolate. The EC50 concentrations in μg/mL were then converted to μM using the GraphPad online Molarity Calculator (https://www.graphpad.com/quickcalcs/Molarityform.cfm (accessed on 12 June 2023)).

HAdV3 = test: plaque reduction assay in A549 cells, HAdV3; assay type: cell-based; conditions: Human adenovirus sp.
Experimental: as §1, §2, §3
(§4) Plaque reduction assays were performed 2–4 times using 24-well multiplates containing A549 monolayers. One plate per virus isolate per drug was used. The 24-well multiplates were inoculated with approximately 100 plaque-forming units (PFU) of HAdV per well. After a three-hour adsorption period, the inocula were removed from all wells. […] The plates were dried, and the number of plaques per well was counted using a dissecting microscope. […] The mean and standard deviation EC50 concentrations of 2–4 trials were then determined for each HAdV isolate. […]

HAdV19/64 = test: plaque reduction assay in A549 cells, HAdV19/64; assay type: cell-based; conditions: Human adenovirus sp.
Experimental: as §1, §2, §3, §4

HAdV2 = test: plaque reduction assay in A549 cells, HAdV2; assay type: cell-based; conditions: Human adenovirus sp.
Experimental: as §1, §2, §3, §4

HAdV5 = test: plaque reduction assay in A549 cells, HAdV5; assay type: cell-based; conditions: Human adenovirus sp.
Experimental: as §1, §2, §3, §4

[2] = Human adenovirus sp., A549, HAdV7a clinical isolate, A549 cells, mean ± SD of 2–4 trials
[3] = Human adenovirus sp., A549, HAdV7a, converted from μg/mL
[4] = A549, HAdV3, converted from μg/mL
[5] = HAdV3 clinical isolate, A549 cells, mean ± SD of 2–4 trials
[6] = A549, HAdV19/64, converted from μg/mL
[7] = HAdV19/64 clinical isolate, A549 cells, mean ± SD of 2–4 trials
[8] = A549, HAdV2, converted from μg/mL
[9] = HAdV2 clinical isolate, A549 cells, mean ± SD of 2–4 trials
[10] = A549, HAdV5, converted from μg/mL
[11] = HAdV5 clinical isolate, A549 cells, mean ± SD of 2–4 trials

Row | SMILES | EC50 (HAdV7a; [2]) | EC50 (HAdV7a; [3]) | range of mean EC50 concentrations across the HAdV serotypes tested [1] | EC50 concentrations lower for CPE-C compared to cidofovir ([1]; majority of the HAdV types) | EC50s across the panel of HAdV types ([1]; nine adenovirus types that commonly infect the eye) | EC50 ([1]; read-out: EC50 concentrations across the panel of HAdV types, panel of HAdV types that commonly infect the eye) | EC50 ([1]; read-out: EC50s across the panel of HAdV types, nine adenovirus types that commonly infect the eye) | EC50 (HAdV3; [4]) | EC50 (HAdV3; [5]) | EC50 (HAdV19/64; [6]) | EC50 (HAdV19/64; [7]) | EC50 (HAdV2; [8]) | EC50 (HAdV2; [9]) | EC50 (HAdV5; [10]) | EC50 (HAdV5; [11]) | EC50 (HAdV7a; HAdV7a, converted from μg/mL) | EC50 ([1]; read-out: EC50 concentrations for a majority of the HAdV serotypes, majority of the HAdV serotypes)
1 | Nc1ccn([C@@H]2C=C(CO)[C@@H](O)[C@H]2O)c(=O)n1 [CPE-C, Cyclopentenylcytosine] | 0.055 ± 0.026 µg/mL | 0.194 ± 0.057 µM | 2 fold | approximately 100 fold | < 0.06 µg/mL | < 0.25 µM | 0.03 to 0.059 µg/mL | 0.165 ± 0.016 µM | 0.04 ± 0.004 µg/mL | 0.196 ± 0.118 µM | 0.047 ± 0.028 µg/mL | 0.198 ± 0.101 µM | 0.047 ± 0.024 µg/mL | 0.126 ± 0.138 µM | 0.03 ± 0.033 µg/mL | – | –
2 | Nc1ccn(C[C@@H](CO)OCP(=O)(O)O)c(=O)n1 [Cidofovir, cidofovir, reference compound] | 5.37 ± 0.137 µg/mL | 19.2 ± 0.491 µM | 12.6 fold | – | – | – | – | 14.8 ± 3.26 µM | 4.12 ± 0.91 µg/mL | 17.5 ± 1.85 µM | 4.9 ± 0.517 µg/mL | 18.3 ± 1.47 µM | 5.11 ± 0.41 µg/mL | 17.6 ± 1.74 µM | 4.92 ± 0.486 µg/mL | 19.2 ± 0.491 µM | ~5 µg/mL

Reference: paper PMC10343472, “Cyclopentenylcytosine (CPE-C): In Vitro and In Vivo Evaluation as an Antiviral against Adenoviral Ocular Infections” (Molecules, 2023)
